Results published in the supplement of paper PMC8671470.

system: MV4-11; test: cell viability (% survival relative to DMSO control, bortezomib = 0%); higher = less cytotoxic; conditions: 1 nM; 72 h
In short: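 Fifteen myeloid leukaemia cell lines were exposed to compounds at 1, 10, 100, 1000 or 10000 nM in 384-well plates for 72 h at 37 °C and 5% CO2. Viability was read by CellTiter-Glo luminescence and normalised, with vehicle as 100% and a 10 µM positive control as 0%. Values are percent survival averaged over duplicates.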

First: O[C@H]1[C@H](O)[C@@H](O)CN2CC[C@H](O)[C@H]12 [Castanospermine]
Second: O=C(/C=C/c1cccnc1)NCCCCC1CCN(C(=O)c2ccccc2)CC1 [Daporinad]
The cell viability of the first is higher: 102% for the first, 25.5% for the second.

Going from `N=C(N)c1ccc(N=NNc2ccc(C(=N)N)cc2)cc1` [Diminazene] to `N#Cc1ccc(C2CCCc3cncn32)cc1` (centres undefined) [Fadrozole], the cell viability falls from 113% to 109%.

Going from `OCCN(CCO)c1nc(N2CCCCC2)c2nc(N(CCO)CCO)nc(N3CCCCC3)c2n1` [Dipyridamole] to `Cc1nc(-c2ccc(OCC(C)C)c(C#N)c2)sc1C(=O)O` [Febuxostat], the cell viability falls from 95.8% to 88.2%.

`Cc1cc(O)c2c(c1)C(=O)c1cc(O)cc(O)c1C2=O` [Emodin] gave a cell viability of 92.8%.

same assay, conditions: 10 nM; 72 h

Going from `CN(C)CCNC(=O)c1cccn2c(=O)c3cc4ccccc4cc3nc12` [Bmh-21] to `O=C(/C=C/c1cccnc1)NCCCCC1CCN(C(=O)c2ccccc2)CC1` [Daporinad], the cell viability falls from 85.5% to 0.401%.

Going from `C=C1C(=O)O[C@H](CCCCCCCC)[C@H]1C(=O)O` [C75] to `O=C(Cc1cccc(OC(F)(F)F)c1)Nc1ccc(CCCCc2nnc(NC(=O)Cc3ccccn3)s2)nn1` [CB-839], the cell viability falls from 98.1% to 86%.

Going from `O=NN(CCCl)C(=O)NCCCl` [Carmustine] to `OCCN(CCO)c1nc(N2CCCCC2)c2nc(N(CCO)CCO)nc(N3CCCCC3)c2n1` [Dipyridamole], the cell viability falls from 104% to 95%.

Compared with `O[C@H]1[C@H](O)[C@@H](O)CN2CC[C@H](O)[C@H]12` [Castanospermine], `N#Cc1ccc(C2CCCc3cncn32)cc1` (centres undefined) [Fadrozole] is lower in cell viability: 106% for the first, 96.4% for the second.

First: N=C(N)c1ccc(N=NNc2ccc(C(=N)N)cc2)cc1 [Diminazene]
Second: Cc1nc(-c2ccc(OCC(C)C)c(C#N)c2)sc1C(=O)O [Febuxostat]
The cell viability of the first is lower: 100% for the first, 104% for the second.

Work on `Cc1cc(O)c2c(c1)C(=O)c1cc(O)cc(O)c1C2=O` [Emodin] yielded a cell viability of 85.6%.

same assay, conditions: 100 nM; 72 h

First: CN(C)CCNC(=O)c1cccn2c(=O)c3cc4ccccc4cc3nc12 [Bmh-21]
Second: O=C(/C=C/c1cccnc1)NCCCCC1CCN(C(=O)c2ccccc2)CC1 [Daporinad]
The cell viability of the first is higher: 90.4% for the first, 0.0312% for the second.

Going from `C=C1C(=O)O[C@H](CCCCCCCC)[C@H]1C(=O)O` [C75] to `O=C(Cc1cccc(OC(F)(F)F)c1)Nc1ccc(CCCCc2nnc(NC(=O)Cc3ccccn3)s2)nn1` [CB-839], the cell viability falls from 103% to 71.2%.

First: O=NN(CCCl)C(=O)NCCCl [Carmustine]
Second: OCCN(CCO)c1nc(N2CCCCC2)c2nc(N(CCO)CCO)nc(N3CCCCC3)c2n1 [Dipyridamole]
The cell viability of the first is higher: 103% for the first, 101% for the second.

Compared with `O[C@H]1[C@H](O)[C@@H](O)CN2CC[C@H](O)[C@H]12` [Castanospermine], `N#Cc1ccc(C2CCCc3cncn32)cc1` (centres undefined) [Fadrozole] is lower in cell viability: 97% for the first, 95.9% for the second.

Compared with `N=C(N)c1ccc(N=NNc2ccc(C(=N)N)cc2)cc1` [Diminazene], `Cc1nc(-c2ccc(OCC(C)C)c(C#N)c2)sc1C(=O)O` [Febuxostat] is higher in cell viability: 94.6% for the first, 99.1% for the second.

`Cc1cc(O)c2c(c1)C(=O)c1cc(O)cc(O)c1C2=O` [Emodin] gave a cell viability of 93%.

same assay, conditions: 1000 nM; 72 h

Compared with `CN(C)CCNC(=O)c1cccn2c(=O)c3cc4ccccc4cc3nc12` [Bmh-21], `O=C(/C=C/c1cccnc1)NCCCCC1CCN(C(=O)c2ccccc2)CC1` [Daporinad] is lower in cell viability: 78.8% for the first, -0.345% for the second.

First: C=C1C(=O)O[C@H](CCCCCCCC)[C@H]1C(=O)O [C75]
Second: O=C(Cc1cccc(OC(F)(F)F)c1)Nc1ccc(CCCCc2nnc(NC(=O)Cc3ccccn3)s2)nn1 [CB-839]
The cell viability of the first is higher: 85.9% for the first, 48.1% for the second.

Going from `O=NN(CCCl)C(=O)NCCCl` [Carmustine] to `OCCN(CCO)c1nc(N2CCCCC2)c2nc(N(CCO)CCO)nc(N3CCCCC3)c2n1` [Dipyridamole], the cell viability falls from 106% to 94.4%.

Going from `O[C@H]1[C@H](O)[C@@H](O)CN2CC[C@H](O)[C@H]12` [Castanospermine] to `N#Cc1ccc(C2CCCc3cncn32)cc1` (centres undefined) [Fadrozole], the cell viability falls from 95.5% to 93.2%.

Compared with `N=C(N)c1ccc(N=NNc2ccc(C(=N)N)cc2)cc1` [Diminazene], `Cc1nc(-c2ccc(OCC(C)C)c(C#N)c2)sc1C(=O)O` [Febuxostat] is higher in cell viability: 92.2% for the first, 105% for the second.

`Cc1cc(O)c2c(c1)C(=O)c1cc(O)cc(O)c1C2=O` [Emodin] was tested, and the cell viability was 99%.

same assay, conditions: 10000 nM; 72 h

First: CN(C)CCNC(=O)c1cccn2c(=O)c3cc4ccccc4cc3nc12 [Bmh-21]
Second: O=C(/C=C/c1cccnc1)NCCCCC1CCN(C(=O)c2ccccc2)CC1 [Daporinad]
The cell viability of the first is higher: 11.1% for the first, -0.425% for the second.

Going from `C=C1C(=O)O[C@H](CCCCCCCC)[C@H]1C(=O)O` [C75] to `O=C(Cc1cccc(OC(F)(F)F)c1)Nc1ccc(CCCCc2nnc(NC(=O)Cc3ccccn3)s2)nn1` [CB-839], the cell viability falls from 116% to 51.2%.

Going from `O=NN(CCCl)C(=O)NCCCl` [Carmustine] to `OCCN(CCO)c1nc(N2CCCCC2)c2nc(N(CCO)CCO)nc(N3CCCCC3)c2n1` [Dipyridamole], the cell viability falls from 83.4% to 43.5%.

First: O[C@H]1[C@H](O)[C@@H](O)CN2CC[C@H](O)[C@H]12 [Castanospermine]
Second: N#Cc1ccc(C2CCCc3cncn32)cc1 (centres undefined) [Fadrozole]
The cell viability of the first is higher: 107% for the first, 98.1% for the second.

Going from `N=C(N)c1ccc(N=NNc2ccc(C(=N)N)cc2)cc1` [Diminazene] to `Cc1nc(-c2ccc(OCC(C)C)c(C#N)c2)sc1C(=O)O` [Febuxostat], the cell viability rises from 77.9% to 116%.

`Cc1cc(O)c2c(c1)C(=O)c1cc(O)cc(O)c1C2=O` [Emodin] was tested, and the cell viability was 100%.

system: HL-60; test: area under dose-response curve (viability, 1 nM-10 uM) (fraction (0-1)); higher = more sensitive; conditions: 72 h; co-treatment: AZD3965 100 nM
In short: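 Area under the curve, where listed, was derived from four-parameter log-logistic fits with drc and PharmacoGx. These fits used CellTiter-Glo viability from HL-60 cells in RPMI 1640 with 10% FBS, normalised to DMSO wells and wells holding 10 μM proteasome inhibitor. The full library was rescreened on 384-well plates in duplicate at five tenfold concentrations, 1–10,000 nM, with DMSO or 100 nM of one of three metabolic inhibitors, for 72 h at 37 °C, 5% CO2.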

First: CN(C)CCNC(=O)c1cccn2c(=O)c3cc4ccccc4cc3nc12 [Bmh-21]
Second: O=C(/C=C/c1cccnc1)NCCCCC1CCN(C(=O)c2ccccc2)CC1 [Daporinad]
The “area under dose-response curve” value of the first is lower: 0.0645 for the first, 0.825 for the second.

First: C=C1C(=O)O[C@H](CCCCCCCC)[C@H]1C(=O)O [C75]
Second: O=C(Cc1cccc(OC(F)(F)F)c1)Nc1ccc(CCCCc2nnc(NC(=O)Cc3ccccn3)s2)nn1 [CB-839]
The “area under dose-response curve” value of the first is lower: < 0.0301 for the first, 0.0553 for the second.

`O=NN(CCCl)C(=O)NCCCl` [Carmustine] and `OCCN(CCO)c1nc(N2CCCCC2)c2nc(N(CCO)CCO)nc(N3CCCCC3)c2n1` [Dipyridamole] cannot be ordered by “area under dose-response curve” value: < 0.0301 for the first, < 0.0301 for the second.

`O[C@H]1[C@H](O)[C@@H](O)CN2CC[C@H](O)[C@H]12` [Castanospermine] and `N#Cc1ccc(C2CCCc3cncn32)cc1` (centres undefined) [Fadrozole] cannot be ordered by “area under dose-response curve” value: < 0.0301 for the first, < 0.0301 for the second.

First: N=C(N)c1ccc(N=NNc2ccc(C(=N)N)cc2)cc1 [Diminazene]
Second: Cc1nc(-c2ccc(OCC(C)C)c(C#N)c2)sc1C(=O)O [Febuxostat]
The “area under dose-response curve” value of the first is lower: < 0.0301 for the first, 0.0351 for the second.

In the case of `Cc1cc(O)c2c(c1)C(=O)c1cc(O)cc(O)c1C2=O` [Emodin], the “area under dose-response curve” value is reported as < 0.0301.

same assay, conditions: 72 h; co-treatment: DMSO vehicle

First: CN(C)CCNC(=O)c1cccn2c(=O)c3cc4ccccc4cc3nc12 [Bmh-21]
Second: C=C1C(=O)O[C@H](CCCCCCCC)[C@H]1C(=O)O [C75]
The “area under dose-response curve” value of the first is higher: 0.0352 for the first, < 0.0301 for the second.
